Results reported in patent US4311698A, “Aminoacid derivatives of cephalosporin compounds” (priority 1980, dated 1982).
In brackets after ≈: the same amount, converted by molar mass.

What was measured:
Format in all cases: cell-based
Pseudomonas #28 = assay: In vitro minimal inhibitory concentration, Pseudomonas #28; conditions: Pseudomonas #28, in vitro; for MIC: read-out: Minimal Inhibitory Concentration
Pseudomonas BRK 12-4-4 = assay: In vitro minimal inhibitory concentration, Pseudomonas BRK 12-4-4; conditions: for MIC: BRK1244
Pseudomonas UI 18 = assay: In vitro minimal inhibitory concentration, Pseudomonas UI 18; conditions: for MIC: UI18
E. Coli. Brig = assay: In vitro minimal inhibitory concentration, E. Coli. Brig; conditions: for MIC: Escherichia coli
E. Coli. Vogel = assay: In vitro minimal inhibitory concentration, E. Coli. Vogel; conditions: for MIC: Escherichia coli
Prot Vulg. = assay: In vitro minimal inhibitory concentration, Prot Vulg.
Entero Cloac. IM 11 = assay: In vitro minimal inhibitory concentration, Entero Cloac. IM 11
Serr. Mar. IMM 16 = assay: In vitro minimal inhibitory concentration, Serr. Mar. IMM 16
Klebs. Pneum. MGH 2 = assay: In vitro minimal inhibitory concentration, Klebs. Pneum. MGH 2
Strep. fec. MGH 2 = assay: In vitro minimal inhibitory concentration, Strep. fec. MGH 2
Staph UC76 = assay: In vitro minimal inhibitory concentration, Staph UC76
Staph S 18713 = assay: In vitro minimal inhibitory concentration, Staph S 18713

Compound | MIC (Pseudomonas #28) [µg/mL] | MIC (Pseudomonas BRK 12-4-4) [µg/mL] | MIC (Pseudomonas UI 18) [µg/mL] | MIC (E. Coli. Brig) [µg/mL] | MIC (E. Coli. Vogel) [µg/mL] | MIC (Prot Vulg.) [µg/mL] | MIC (Entero Cloac. IM 11) [µg/mL] | MIC (Serr. Mar. IMM 16) [µg/mL] | MIC (Klebs. Pneum. MGH 2) [µg/mL] | MIC (Strep. fec. MGH 2) [µg/mL] | MIC (Staph UC76) [µg/mL] | MIC (Staph S 18713) [µg/mL] | also measured
CC(=O)OCC1=C(C(=O)O)N2C(=O)C(NC(=O)[C@H](NC(=O)c3ccc(-c4ccc(NC(=O)[C@@H]5CC(O)CN5C(C)=O)cc4)[nH]c3=O)c3ccccc3)C2SC1 (stereo partly drawn) [Example 31, N-[6-[4-(N-Acetyl-4-hydroxy-L-prolylamino)phenyl]-1,2-dihydro-2-oxonicotinyl]-7-[D-2-amino-2-phenylacetamido]-3-acetoxymethyl-3-cephem-4-carboxylic acid] | 12.5 (≈ 16.2 µM) | 12.5 (≈ 16.2 µM) | 12.5 (≈ 16.2 µM) | 12.5 (≈ 16.2 µM) | 3.1 (≈ 4.01 µM) | 25 (≈ 32.4 µM) | 12.5 (≈ 16.2 µM) | > 50 | 6.3 (≈ 8.15 µM) | 25 (≈ 32.4 µM) | 0.8 (≈ 1.04 µM) | 25 (≈ 32.4 µM) | 
CC(=O)NCCCCC(NC(C)=O)C(=O)Nc1ccc(-c2ccc(C(=O)N[C@@H](C(=O)NC3C(=O)N4C(C(=O)O)=C(CSc5nnnn5C)CSC34)c3ccccc3)c(=O)[nH]2)cc1 (mixture of isomers) [Example 26, N-[6-[4-(N,N'-Diacetyl-DL-lysylamino)phenyl)-1,2-dihydro-2-oxonicotinyl]-7-[D-2-amino-2-phenylacetamido]3-[[(1-methyl-1H-tetrazol-5-yl)thio]methyl]-3-cephem-4-carboxylic acid] | 12.5 | 12.5 | 12.5 | 12.5 | 1.6 | 25 | 6.3 | 50 | 1.6 | 50 | 1.6 | 6.3 | 
CC(=O)OCC1=C(C(=O)O)N2C(=O)C(NC(=O)[C@H](NC(=O)c3ccc(-c4ccc(NC(=O)[C@@H](C)N)cc4)[nH]c3=O)c3ccccc3)C2SC1 (stereo partly drawn) [Example 29, N-[6-[4-(D-Alanylamino)phenyl]-1,2-dihydro-2-oxonicotinyl]-7-[D-2-amino-2-phenylacetamido]-3-acetoxymethyl-3-cephem-4-carboxylic acid] |  |  |  |  |  |  |  |  |  |  |  |  | Minimal Inhibitory Concentration (Pseudomonas #28): 1.6 µg/mL; Minimal Inhibitory Concentration (Pseudomonas BRK 12-4-4): 1.6 µg/mL; Minimal Inhibitory Concentration (Pseudomonas UI 18): 1.6 µg/mL; Minimal Inhibitory Concentration (E. Coli. Brig): 6.3 µg/mL; Minimal Inhibitory Concentration (E. Coli. Vogel): 1.6 µg/mL; Minimal Inhibitory Concentration (Prot Vulg.): 6.3 µg/mL; Minimal Inhibitory Concentration (Entero Cloac. IM 11): 12.5 µg/mL; Minimal Inhibitory Concentration (Serr. Mar. IMM 16): 25 µg/mL; Minimal Inhibitory Concentration (Klebs. Pneum. MGH 2): 6.3 µg/mL; Minimal Inhibitory Concentration (Strep. fec. MGH 2): 12.5 µg/mL; Minimal Inhibitory Concentration (Staph UC76): 0.4 µg/mL; Minimal Inhibitory Concentration (Staph S 18713): 1.6 µg/mL
CC(=O)N[C@H](C)C(=O)Nc1ccc(-c2ccc(C(=O)N[C@@H](C(=O)NC3C(=O)N4C(C(=O)O)=C(CSc5nnnn5CC(=O)O)CSC34)c3ccccc3)c(=O)[nH]2)cc1 (stereo partly drawn) [Example 1, N-[6-[4-(N-Acetyl-D-alanylamino)phenyl]-1,2-dihydro-2-oxonicotinyl]-7-[D-2-amino-2-phenylacetamido]-3-[[(1-carboxymethyl-1H-tetrazol-5-yl)thio]methyl]-3-cephem-4-carboxylic acid] | 6.3 (≈ 7.58 µM) | 12.5 (≈ 15 µM) | 6.3 (≈ 7.58 µM) | 6.3 (≈ 7.58 µM) | 0.4 (≈ 0.481 µM) | 3.1 (≈ 3.73 µM) | 3.1 (≈ 3.73 µM) | 12.5 (≈ 15 µM) | 3.1 (≈ 3.73 µM) | > 50 | 3.1 (≈ 3.73 µM) | 12.5 (≈ 15 µM) | 
Cn1nnnc1SCC1=C(C(=O)O)N2C(=O)C(NC(=O)[C@H](NC(=O)c3ccc(-c4ccc(NC(=O)[C@@H]5CCC(=O)N5)cc4)[nH]c3=O)c3ccccc3)C2SC1 (stereo partly drawn) [Example 7, N-[6-[4-(L-Pyroglutamylamino)phenyl]-1,2-dihydro-2-oxonicotinyl]-7-[D-2-amino-2-phenylacetamido]-3-[[(1-methyl-1H-tetrazol-5-yl)thio]methyl]-3-cephem-4-carboxylic acid] | 6.3 (≈ 8.03 µM) | 6.3 (≈ 8.03 µM) | 6.3 (≈ 8.03 µM) | 3.1 (≈ 3.95 µM) | 0.8 (≈ 1.02 µM) | 12.5 (≈ 15.9 µM) | 3.1 (≈ 3.95 µM) | 12.5 (≈ 15.9 µM) | 1.6 (≈ 2.04 µM) | 12.5 (≈ 15.9 µM) | 0.4 (≈ 0.51 µM) | 3.1 (≈ 3.95 µM) | 
CC(=O)N[C@H](C)C(=O)Nc1ccc(-c2ccc(C(=O)N[C@@H](C(=O)NC3C(=O)N4C(C(=O)O)=C(CSc5nnnn5C)CSC34)c3ccccc3)c(=O)[nH]2)cc1 (stereo partly drawn) [Example 19, N-[6-[4-(N-Acetyl-D-alanylamino)phenyl]-1,2-dihydro-2-oxonicotinyl]-7-[D-2-amino-2-phenylacetamido]-3-[[(1-methyl-1H-tetrazol-5-yl)thio]methyl]-3-cephem-4-carboxylic acid] | 6.3 (≈ 8.01 µM) | 12.5 (≈ 15.9 µM) | 6.3 (≈ 8.01 µM) | 6.3 (≈ 8.01 µM) | 0.8 (≈ 1.02 µM) | 12.5 (≈ 15.9 µM) | 12.5 (≈ 15.9 µM) | 25 (≈ 31.8 µM) | 3.1 (≈ 3.94 µM) | 25 (≈ 31.8 µM) | 0.8 (≈ 1.02 µM) | 6.3 (≈ 8.01 µM) | 
CC(=O)N[C@@H](C)C(=O)Nc1ccc(-c2ccc(C(=O)N[C@@H](C(=O)NC3C(=O)N4C(C(=O)O)=C(CSc5nnc(C)s5)CSC34)c3ccccc3)c(=O)[nH]2)cc1 (stereo partly drawn) [Example 15, N-[6-[4-(N-Acetyl-L-alanylamino)phenyl]-1,2-dihydro-2-oxonicotinyl]-7-[D-2-amino-2-phenylacetamido]-3-[([5-methyl-1,3,4-thiadiazolyl-2-yl]thio)methyl]-3-cephem-4-carboxylic acid] | 12.5 (≈ 15.6 µM) | 12.5 (≈ 15.6 µM) | 12.5 (≈ 15.6 µM) | 6.3 (≈ 7.85 µM) | 1.6 (≈ 1.99 µM) | 12.5 (≈ 15.6 µM) | 12.5 (≈ 15.6 µM) | 25 (≈ 31.1 µM) | 3.1 (≈ 3.86 µM) | 12.5 (≈ 15.6 µM) | 0.4 (≈ 0.498 µM) | 6.3 (≈ 7.85 µM) | 
CC(=O)N[C@@H](CCC(N)=O)C(=O)Nc1ccc(-c2ccc(C(=O)N[C@@H](C(=O)NC3C(=O)N4C(C(=O)O)=C(COC(C)=O)CSC34)c3ccccc3)c(=O)[nH]2)cc1 (stereo partly drawn) [Example 14, N-[6-[4-(N-Acetyl-L-glutaminylamino)phenyl]-1,2-dihydro-2-oxonicotinyl]-7-[D-2-amino-2-phenylacetamido]-3-acetoxymethyl-3-cephem-4-carboxylic acid] | 3.1 (≈ 3.93 µM) | 6.3 (≈ 8 µM) | 6.3 (≈ 8 µM) | 6.3 (≈ 8 µM) | 1.6 (≈ 2.03 µM) | 25 (≈ 31.7 µM) | 12.5 (≈ 15.9 µM) | 50 (≈ 63.5 µM) | 3.1 (≈ 3.93 µM) | 12.5 (≈ 15.9 µM) | 0.8 (≈ 1.02 µM) | 1.6 (≈ 2.03 µM) | 
CC(=O)NCCCCC(NC(C)=O)C(=O)Nc1ccc(-c2ccc(C(=O)N[C@@H](C(=O)NC3C(=O)N4C(C(=O)O)=C(COC(C)=O)CSC34)c3ccccc3)c(=O)[nH]2)cc1 (mixture of isomers) [Example 27, N-[6-[4-(N,N'-Diacetyl-DL-lysylamino)phenyl]-1,2-dihydro-2-oxonicotinyl]-7-[D-2-amino-2-phenylacetamido]-3-acetoxymethyl-3-cephem-4-carboxylic acid] | 3.1 | 12.5 | 6.3 | 25 | 3.1 | 50 | 12.5 | > 50 | 6.3 | 25 | 1.6 | 12.5 | 
CC(=O)NC(C)C(=O)Nc1ccc(-c2ccc(C(=O)N[C@@H](C(=O)NC3C(=O)N4C(C(=O)O)=C(COC(N)=O)CSC34)c3ccccc3)c(=O)[nH]2)cc1 (mixture of isomers) [Example 10, N-[6-[4(N-Acetyl-DL-alanylamino)phenyl]-1,2-dihydro-2-oxonicotinyl]-7-[D-2-amino-2-phenylacetamido]-3-carbamoyloxymethyl-3-cephem-4-carboxylic acid] | 3.1 | 12.5 | 6.3 | 12.5 | 6.3 | 12.5 | 25 | > 50 | 12.5 | 12.5 | 1.6 | 3.1 | 
CC(=O)NC(C)C(=O)Nc1ccc(-c2ccc(C(=O)N[C@@H](C(=O)NC3C(=O)N4C(C(=O)O)=C(CSc5nnc(C)s5)CSC34)c3ccccc3)c(=O)[nH]2)cc1 (mixture of isomers) [Example 22, N-[6-[4-(N-Acetyl-DL-alanylamino)phenyl]-1,2-dihydro-2-oxonicotinyl]-7-[D-2-amino-2-phenylacetamido]-3-[([4-methyl-1,3,4-thiadiazol-2-yl]thio)methyl]-3-cephem-4-carboxylic acid] | 12.5 | 12.5 | 12.5 | 6.3 | 1.6 | 12.5 | 12.5 | 25 | 3.1 | 12.5 | 0.4 | 6.3 | 
CC(=O)N[C@H](C)C(=O)Nc1cccc(-c2ccc(C(=O)N[C@@H](C(=O)NC3C(=O)N4C(C(=O)O)=C(COC(C)=O)CSC34)c3ccccc3)c(=O)[nH]2)c1 (stereo partly drawn) [Example 28] | 12.5 (≈ 17.1 µM) | 25 (≈ 34.2 µM) | 12.5 (≈ 17.1 µM) | 25 (≈ 34.2 µM) | 12.5 (≈ 17.1 µM) | 50 (≈ 68.4 µM) | 50 (≈ 68.4 µM) | > 50 | 25 (≈ 34.2 µM) | 25 (≈ 34.2 µM) | 1.6 (≈ 2.19 µM) | 1.6 (≈ 2.19 µM) | 
